Several values for one entry are separate records, joined by “and”; a condition that tells them apart may be missing. Equal values may be shown once. Inconclusive results and toxic doses are left out.
Test system: CD2F1 mice, L1210 leukemia ip, survival T/C
Experiment: NCI In Vivo Anticancer Drug Screen. Data for tumor model L1210 Leukemia (intraperitoneal) in CD2F1 (CDF1) mice
Details: higher = longer survival
Procedure, shortened: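 Each value reflects a quotient of treated over vehicle control outcomes in mice with a transplanted tumor.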

[1] = endpoint: mean survival time, dose: 3.13 mg/kg/injection, schedule: Q04DX003 (ip), vehicle: distilled water + Tween-80
[2] = endpoint: mean survival time, dose: 25.0 mg/kg/injection, schedule: Q04DX002 (ip), vehicle: saline
[3] = endpoint: mean survival time, dose: 50.0 mg/kg/injection, schedule: Q04DX002 (ip), vehicle: saline
[4] = endpoint: mean survival time, dose: 100.0 mg/kg/injection, schedule: Q04DX003 (ip), vehicle: saline with Tween-80
[5] = endpoint: mean survival time, dose: 200.0 mg/kg/injection, schedule: Q04DX003 (ip), vehicle: saline with Tween-80
[6] = endpoint: mean survival time, dose: 400.0 mg/kg/injection, schedule: Q04DX003 (ip), vehicle: saline with Tween-80
[7] = endpoint: mean survival time, dose: 100.0 mg/kg/injection, schedule: Q04DX003 (ip), vehicle: saline
[8] = endpoint: mean survival time, dose: 200.0 mg/kg/injection, schedule: Q04DX003 (ip), vehicle: saline
[9] = endpoint: mean survival time, dose: 100.0 mg/kg/injection, schedule: Q01DX009 (ip), vehicle: saline with Tween-80
[10] = endpoint: mean survival time, dose: 200.0 mg/kg/injection, schedule: Q01DX009 (ip), vehicle: saline with Tween-80
[11] = endpoint: mean survival time, dose: 50.0 mg/kg/injection, schedule: Q01DX009 (ip), vehicle: saline
[12] = endpoint: mean survival time, dose: 100.0 mg/kg/injection, schedule: Q01DX009 (ip), vehicle: saline
[13] = endpoint: mean survival time, dose: 100.0 mg/kg/injection, schedule: Q01DX001 (ip), vehicle: saline
[14] = endpoint: mean survival time, dose: 200.0 mg/kg/injection, schedule: Q01DX001 (ip), vehicle: saline
[15] = endpoint: mean survival time, dose: 400.0 mg/kg/injection, schedule: Q01DX001 (ip), vehicle: saline
[16] = endpoint: mean survival time, dose: 50.0 mg/kg/injection, schedule: Q01DX009 (ip), vehicle: saline with Tween-80

O=c1[nH]cc(N=Cc2ccccc2Cl)c(=O)[nH]1.[Cl][Pt][Cl] was tested, and the T/C [1] was 94 % of control, the T/C (endpoint: mean survival time, dose: 6.25 mg/kg/injection, schedule: Q04DX003 (ip), vehicle: distilled water + Tween-80) was 97 % of control and the T/C (endpoint: mean survival time, dose: 12.5 mg/kg/injection, schedule: Q04DX003 (ip), vehicle: distilled water + Tween-80) was 88 % of control. The T/C (endpoint: mean survival time, dose: 25.0 mg/kg/injection, schedule: Q04DX003 (ip), vehicle: distilled water + Tween-80) was 96 % of control, the T/C (endpoint: mean survival time, dose: 50.0 mg/kg/injection, schedule: Q04DX003 (ip), vehicle: distilled water + Tween-80) was 96 % of control and the T/C (endpoint: mean survival time, dose: 100.0 mg/kg/injection, schedule: Q04DX003 (ip), vehicle: distilled water + Tween-80) was 103 % of control. The T/C (endpoint: mean survival time, dose: 200.0 mg/kg/injection, schedule: Q04DX003 (ip), vehicle: distilled water + Tween-80) was 94 % of control.
CC[NH-].[Cl][Pt+2][Cl].[NH-]C1CC1 was tested, and the T/C [1] was 116 % of control.
For COC1CCC2CC1[N+](C)(C)C2 (configuration not stated), the T/C (endpoint: mean survival time, dose: 12.5 mg/kg/injection, schedule: Q04DX002 (ip), vehicle: saline) was 96 % of control, the T/C [2] was 101 % of control and the T/C [3] was 101 % of control.
For CN(C1=CC(=O)C(C)(C)c2ccccc21)C1CCCCC1, the T/C [4] was 95 % of control, the T/C [5] was 91 % of control and the T/C [6] was 94 % of control.
For O=C1C=CC(O)CCC1 (configuration not stated) (tested in a mixture with another compound), the T/C [4] was 101 % of control, the T/C [5] was 101 % of control and the T/C [6] was 97 % of control.
In the case of CCOC(=O)C1(C(=O)OCC)C(C)CC2Nc3cc4c(cc3C(=O)N21)OCO4 (configuration not stated), the T/C (endpoint: mean survival time, dose: 100.0 mg/kg/injection, schedule: Q01DX001 (ip), vehicle: Klucel (hydroxypropylcellulose) (HPC)) is reported as 92 % of control, the T/C (endpoint: mean survival time, dose: 200.0 mg/kg/injection, schedule: Q01DX001 (ip), vehicle: Klucel (hydroxypropylcellulose) (HPC)) is reported as 96 % of control and the T/C (endpoint: mean survival time, dose: 400.0 mg/kg/injection, schedule: Q01DX001 (ip), vehicle: Klucel (hydroxypropylcellulose) (HPC)) is reported as 96 % of control.
With Nc1ccc(C(=O)CC(O)(C(F)(F)F)C(F)(F)F)cc1 the T/C [4] was 113 % of control, the T/C [5] was 111 % of control and the T/C [6] was 113 % of control.
With COc1ccc([N+](=O)[O-])cc1NC(=O)Nc1ccccc1C the T/C (endpoint: mean survival time, dose: 100.0 mg/kg/injection, schedule: Q04DX002 (ip), vehicle: saline with Tween-80) was 92 % of control, the T/C (endpoint: mean survival time, dose: 200.0 mg/kg/injection, schedule: Q04DX002 (ip), vehicle: saline with Tween-80) was 88 % of control and the T/C (endpoint: mean survival time, dose: 400.0 mg/kg/injection, schedule: Q04DX002 (ip), vehicle: saline with Tween-80) was 95 % of control.
In the case of OCC1OC(O)C(F)C(O)C1O (configuration not stated), the T/C (endpoint: mean survival time, dose: 50.0 mg/kg/injection, schedule: Q04DX003 (ip), vehicle: saline) is reported as 108 % of control, the T/C [7] is reported as 104 % of control and the T/C [8] is reported as 101 % of control. The T/C (endpoint: mean survival time, dose: 400.0 mg/kg/injection, schedule: Q04DX003 (ip), vehicle: saline) was 101 % of control.
In the case of O=C(O)/C=C/C(=O)Nc1ccc(Cl)cc1, the T/C [9] is reported as 104 % of control and the T/C [10] is reported as 89 % of control.
In the case of CC(=O)OCC1OC(N(C(C)=O)c2nc(Cl)c3cc[nH]c3n2)C(OC(C)=O)C1OC(C)=O (configuration not stated), the T/C (endpoint: mean survival time, dose: 12.5 mg/kg/injection, schedule: Q01DX005 (ip), vehicle: water) is reported as 104 % of control, the T/C (endpoint: mean survival time, dose: 25.0 mg/kg/injection, schedule: Q01DX005 (ip), vehicle: water) is reported as 101 % of control and the T/C (endpoint: mean survival time, dose: 50.0 mg/kg/injection, schedule: Q01DX005 (ip), vehicle: water) is reported as 98 % of control. The T/C (endpoint: mean survival time, dose: 100.0 mg/kg/injection, schedule: Q01DX005 (ip), vehicle: water) was 102 % of control and the T/C (endpoint: mean survival time, dose: 200.0 mg/kg/injection, schedule: Q01DX005 (ip), vehicle: water) was 106 % of control.
For CCOC(=O)NC(C)(C)CN(C(=O)OCC)C(C)(C)CO, the T/C [11] was 102 % of control and the T/C [12] was 98 % of control.
O=C(CCN1CCCCC1)c1ccccc1 was tested, and the T/C (endpoint: mean survival time, dose: 5.0 mg/kg/injection, schedule: Q01DX009 (ip), vehicle: saline) was 115 % of control, the T/C (endpoint: mean survival time, dose: 10.0 mg/kg/injection, schedule: Q01DX009 (ip), vehicle: saline) was 114 % of control and the T/C (endpoint: mean survival time, dose: 20.0 mg/kg/injection, schedule: Q01DX009 (ip), vehicle: saline) was 102 % of control.
With CNC(=O)NC1C(O)C(OC)OC2COC(c3ccccc3)OC21 (configuration not stated) the T/C [4] was 97 % of control, the T/C [5] was 97 % of control and the T/C [6] was 95 % of control.
In the case of O=C1c2cccc(O)c2C(=O)c2c(O)cccc21, the T/C [13] is reported as 100 % of control, the T/C [14] is reported as 102 % of control and the T/C [15] is reported as 100 % of control.
[Co].[N-]=C=S.[N-]=C=S.[N-]=C=S.[N-]=C=S was tested, and the T/C [2] was 104 % of control, the T/C [3] was 104 % of control and the T/C (endpoint: mean survival time, dose: 100.0 mg/kg/injection, schedule: Q04DX002 (ip), vehicle: saline) was 117 % of control and 112 % of control.
With C(/C=C\c1ccccc1)=C(/C=C/c1ccccc1)/C=C/c1ccccc1 the T/C (endpoint: mean survival time, dose: 200.0 mg/kg/injection, schedule: Q01DX001 (ip), vehicle: saline with Tween-80) was 89 % of control and the T/C (endpoint: mean survival time, dose: 400.0 mg/kg/injection, schedule: Q01DX001 (ip), vehicle: saline with Tween-80) was 89 % of control.
For Cc1cc(N)c(C)c(C)c1O, the T/C (endpoint: mean survival time, dose: 25.0 mg/kg/injection, schedule: Q01DX009 (ip), vehicle: saline with Tween-80) was 90 % of control, the T/C [16] was 98 % of control and the T/C [9] was 88 % of control.
CC(=O)NC(CSCc1c2ccccc2c(C)c2c1ccc1ccccc12)C(=O)O (configuration not stated) was tested, and the T/C [16] was 103 % of control, the T/C [9] was 95 % of control and the T/C [4] was 93 % of control. The T/C [10] was 103 % of control and the T/C [5] was 90 % of control.
For CCCc1ccc(C(C)=O)cc1, the T/C (endpoint: mean survival time, dose: 75.0 mg/kg/injection, schedule: Q04DX002 (ip), vehicle: saline with Tween-80) was 112 % of control and the T/C (endpoint: mean survival time, dose: 150.0 mg/kg/injection, schedule: Q04DX002 (ip), vehicle: saline with Tween-80) was 100 % of control.
In the case of OC1(c2ccccc2)CCN(C/C=C/c2ccc(Cl)cc2)CC1, the T/C (endpoint: median survival time, dose: 25.0 mg/kg/injection, schedule: Q04DX003 (ip), vehicle: saline with Tween-80) is reported as 100 % of control and the T/C (endpoint: median survival time, dose: 50.0 mg/kg/injection, schedule: Q04DX003 (ip), vehicle: saline with Tween-80) is reported as 90 % of control.
In the case of Cc1cccc(NC(=O)Nc2ccc(Oc3ccccc3Cl)c(S(=O)(=O)O)c2)c1, the T/C [11] is reported as 101 % of control, the T/C [12] is reported as 95 % of control and the T/C [7] is reported as 95 % of control. For the same molecule, the T/C [8] was 95 % of control.
With CCCC(CCC)(C(N)=O)C(=O)O the T/C [13] was 97 % of control, the T/C [14] was 97 % of control and the T/C [15] was 94 % of control.
O=C1C(NCCO)=C(N2CC2)C(=O)C(NCCO)=C1N1CC1 was tested, and the T/C (endpoint: median survival time, dose: 0.06 mg/kg/injection, schedule: Q01DX009 (ip), vehicle: saline) was 122 % of control, the T/C (endpoint: median survival time, dose: 0.25 mg/kg/injection, schedule: Q01DX009 (ip), vehicle: saline) was 153 % of control and the T/C (endpoint: median survival time, dose: 0.5 mg/kg/injection, schedule: Q01DX009 (ip), vehicle: saline) was 171 % of control. The T/C (endpoint: median survival time, dose: 1.0 mg/kg/injection, schedule: Q01DX009 (ip), vehicle: saline) was 220 % of control and the T/C (endpoint: median survival time, dose: 2.0 mg/kg/injection, schedule: Q01DX009 (ip), vehicle: saline) was 86 % of control.
NC(=O)CC(NC(=O)CCl)C(=O)O (configuration not stated) was tested, and the T/C [4] was 101 % of control, the T/C [5] was 92 % of control and the T/C [6] was 92 % of control.
COc1cc(N2C(N)=NC(N)=NC2(C)C)cc(OC)c1OC was tested, and the T/C (endpoint: mean survival time, dose: 6.25 mg/kg/injection, schedule: Q04DX003 (ip), vehicle: saline) was 97 % of control, the T/C (endpoint: mean survival time, dose: 12.5 mg/kg/injection, schedule: Q04DX003 (ip), vehicle: saline) was 102 % of control and the T/C (endpoint: mean survival time, dose: 25.0 mg/kg/injection, schedule: Q04DX003 (ip), vehicle: saline) was 102 % of control.
In the case of O=C(O)CCn1c(=O)[nH]c(=O)n(CCC(=O)O)c1=O, the T/C [9] is reported as 96 % of control, the T/C [4] is reported as 113 % of control and the T/C [10] is reported as 100 % of control. The T/C [5] was 101 % of control, the T/C (endpoint: mean survival time, dose: 400.0 mg/kg/injection, schedule: Q01DX009 (ip), vehicle: saline with Tween-80) was 97 % of control and the T/C [6] was 98 % of control.
For O=C1CCN(Cc2ccccc2)C(=O)N1, the T/C [16] was 97 % of control, the T/C [9] was 98 % of control and the T/C [4] was 106 % of control. The T/C [10] was 98 % of control and the T/C [5] was 97 % of control.
For O=c1[nH]cnc2nc(SCc3ccc([N+](=O)[O-])cc3)[nH]c12, the T/C (endpoint: mean survival time, dose: 50.0 mg/kg/injection, schedule: Q01DX009 (ip), vehicle: Klucel (hydroxypropylcellulose) (HPC)) was 90 % of control, the T/C (endpoint: mean survival time, dose: 100.0 mg/kg/injection, schedule: Q01DX009 (ip), vehicle: Klucel (hydroxypropylcellulose) (HPC)) was 94 % of control and the T/C (endpoint: mean survival time, dose: 200.0 mg/kg/injection, schedule: Q01DX009 (ip), vehicle: Klucel (hydroxypropylcellulose) (HPC)) was 105 % of control.

Reference: PubChem BioAssay AID256 (DTP/NCI, 2004)
